Laboratory results published in patent EP0946545B1, “NOVEL CARBOXY SUBSTITUTED CYCLIC CARBOXAMIDE DERIVATIVES” (Aventis Pharmaceuticals Inc., priority 1996, dated 1998).
Structures can show the parent of a compound that is named as a salt.

Key:
[1] = biological target: T1, human jejunal NK2 receptor (Homo sapiens, UniProt P21452); assay: Antagonism of iodinated tachykinin binding to NK2 receptors (Example A)
T1 construct: expressed in transfected cells; host or cells: HSKR-1 cells (mouse 3T3 fibroblasts)
T1 sequence (P21452 1-398): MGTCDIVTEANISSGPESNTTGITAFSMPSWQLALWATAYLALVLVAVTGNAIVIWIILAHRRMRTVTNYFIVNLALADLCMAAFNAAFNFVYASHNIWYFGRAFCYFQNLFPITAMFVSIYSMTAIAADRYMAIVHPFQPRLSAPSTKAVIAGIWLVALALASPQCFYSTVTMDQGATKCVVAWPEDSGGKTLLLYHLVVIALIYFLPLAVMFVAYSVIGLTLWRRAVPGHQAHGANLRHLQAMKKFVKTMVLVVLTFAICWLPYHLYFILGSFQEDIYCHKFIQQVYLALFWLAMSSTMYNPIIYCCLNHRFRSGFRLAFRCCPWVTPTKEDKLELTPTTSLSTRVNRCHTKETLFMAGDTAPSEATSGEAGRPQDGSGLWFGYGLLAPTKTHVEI
Method: (§1) One skilled in the art can determine the NK1 receptor and NK2 receptor affinity in vitro as follows. The NK1 receptor affinity of tachykinin antagonists is evaluated in guinea pig lungs (Keystone Biologicals, Cleveland, OH) and affinity for the NK2 receptor is evaluated in HSKR-1 cells (which are mouse 3T3 fibroblasts expressing the human jejunal NK2 receptor). Tissues or cells are homogenized with a Polytron in 15 volumes of 50 mM Tris-HC1 buffer (pH 7.4, 4°C) and centrifuged. The pellet is resuspended in Tris-HCl buffer and is centrifuged; the pellet is washed twice by resuspension. The final pellet is resuspended at a concentration of 40 mg/ml for tissues and 20 mg/ml for cells in incubation buffer and remains at room temperature for at least 15 min prior to use. Receptor binding is initiated by addition of 250 ul membrane preparation in duplicate to 0.1 nM of the following radioligands: ^125I-Bolton Hunter Lys-3 labeled substance P and ^125iodohistidyl-1-neurokinin A; in a final volume of 500 ul of buffer containing 50 mM Tris-HCl (pH 7.4 at room temperature), 0.1% bovine serum albumin, 2 mM mangenese chloride, 40 ug/ml bacitracin, 4 µg/ml leupeptin and chymostatin, 10 µM thiorphan and various doses of the putative tachykinin antagonists. Incubations are performed at room temperature for 90 min (NK1 receptor assays) or 2 hr (NK2 receptor assay); binding is terminated by addition of 50 mM Tris-HCl buffer (pH 7.4, 4°C) and filtration under vacuum through GF/B filters presoaked with 0.1% polyethyleneimine (NK1 receptor assays) or 0.5% bovine serum albumin (NK2 receptor assay). Filter bound radioactivity is quantitated in a gamma counter. Nonspecific binding is defined as binding in the presence of 1 µM substance P or neurokinin A. Specific binding is calculated by subtracting nonspecific binding from total binding. Competition of iodinated SP or NKA binding by test compounds or standards is expressed as a percentage of this maximum binding. IC50 values (concentration required to inhibit 50% of receptor binding) are generated for each of the test compounds by nonlinear regression using an iterative curve fitting program (GraphPAD Inplot, San Diego, CA).
(§2) Tackykinin receptor binding (IC50 values) for representative compounds of the present invention is found in Table 1. The values in Table 1 were determined by the method of present Example A and represent the mean of several experiments, except where noted. […]

NK1 receptor = biological target: T2, NK1 receptor (Cavia porcellus, UniProt P30547); assay: Antagonism of iodinated tachykinin binding to NK1 receptors (Example A); parameters: species or system guinea pig
T2 construct: evaluated in guinea pig lungs (Keystone Biologicals, Cleveland, OH); tissue Keystone Biologicals, Cleveland, OH; host or cells: guinea pig lung membranes
Method: as §1, §2

T2 sequence (P30547 whole entry): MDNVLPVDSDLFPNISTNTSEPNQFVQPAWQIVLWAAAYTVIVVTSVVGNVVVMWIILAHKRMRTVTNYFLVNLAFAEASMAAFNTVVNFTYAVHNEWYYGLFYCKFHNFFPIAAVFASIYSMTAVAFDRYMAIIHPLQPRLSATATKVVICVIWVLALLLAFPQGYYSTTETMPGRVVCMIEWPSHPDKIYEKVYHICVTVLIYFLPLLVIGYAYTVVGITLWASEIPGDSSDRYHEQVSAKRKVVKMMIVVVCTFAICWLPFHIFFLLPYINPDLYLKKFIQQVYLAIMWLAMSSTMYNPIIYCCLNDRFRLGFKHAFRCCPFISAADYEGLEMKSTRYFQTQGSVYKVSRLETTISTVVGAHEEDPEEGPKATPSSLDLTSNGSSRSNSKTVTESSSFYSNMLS

`CCOC(=O)CN1CCN(C(=O)C2(c3cccnc3)CCN(CC[C@]3(c4ccc(Cl)c(Cl)c4)CCN(C(=O)c4cc(OC)c(OC)c(OC)c4)C3)CC2)CC1` [Example 5.5, (R)-1-(3,4,5-trimethoxybenzoyl)-3-(2-(4-(pyrid-3-yl)-4-((4-carboethoxymethylpiperazin-1-yl)carboxamido)piperidin-1-yl)ethyl)-3-(3,4-dichlorophenyl)pyrrolidine hydrochloric acid salt] gave an IC50 [1] of 2.5 nM and an IC50 (NK1 receptor) of 6.38 nM.
`COc1cc(C(=O)N2CC[C@](CCN3CCC(C(=O)N4CCN(CC(=O)O)CC4)(c4cccnc4)CC3)(c3ccc(Cl)c(Cl)c3)C2)cc(OC)c1OC` [Example 6.1, (R)-1-(3,4,5-trimethoxybenzoyl)-3-(2-(4-(pyrid-3-yl)-4-((4-carboxymethylpiperazin-1-yl)carboxamido)piperidin-1-yl)ethyl)-3-(3,4-dichlorophenyl)pyrrolidine hydrochloric acid salt] was tested, and the IC50 [1] was 14.7 nM and the IC50 (NK1 receptor) was 16.1 nM.
`CCOC(=O)CN1CCN(C(=O)C2(c3ccccc3)CCN(CC[C@]3(c4ccc(Cl)c(Cl)c4)CCN(C(=O)c4cc(OC)c(OC)c(OC)c4)C3)CC2)CC1` [Example 8.3.1, (R)-1-(3,4,5-trimethoxvbenzoyl)-3-(2-(4-phenyl-4-((4-carboethoxymethylpiperazin-1-yl)carboxamido)piperidine)ethyl)-3-(3,4-dichlorophenyl)pyrrolidine hydrochloric acid salt] gave an IC50 [1] of 2.41 nM and an IC50 (NK1 receptor) of 7.7 nM.
`COc1cc(C(=O)N2CC[C@](CCN3CCC(C(=O)N4CCN(CC(=O)O)CC4)(c4ccccc4)CC3)(c3ccc(Cl)c(Cl)c3)C2)cc(OC)c1OC` [Example 9.2, (R)-1-(3,4,5-trimethoxybenzoyl)-3-(2-(4-phenyl-4-((4-carboxymethylpiperazin-1-yl)carboxamido)piperidine)ethyl)-3-(3,4-dichlororophenyl)pyrrolidine hydrochloric acid salt] gave an IC50 [1] of 3.13 nM and an IC50 (NK1 receptor) of 5.63 nM.
Compound `CCOC(=O)CN1CCN(C(=O)C2(c3ccccc3)CCN(CC[C@]3(c4ccc(Cl)c(Cl)c4)CCN(C(=O)c4cc(-n5cnnn5)ccc4OC)C3)CC2)CC1` [Example 10.4, (R)-1-(2-methoxy-5-(1H-tetrazol-1-yl)benzoyl)-3-(2-(4-phenyl-4-((4-carboethoxymethylpiperazin-1-yl)carboxamido)piperidine)ethyl)-3-(3,4-dichlorophenyl)pyrrolidine hydrochloric acid salt] has an IC50 [1] of 51.8 nM and an IC50 (NK1 receptor) of 8.42 nM.
Compound `COc1ccc(-n2cnnn2)cc1C(=O)N1CC[C@](CCN2CCC(C(=O)N3CCN(CC(=O)O)CC3)(c3ccccc3)CC2)(c2ccc(Cl)c(Cl)c2)C1` [Example 11.1, (R)-1-(2-methoxy-5-(1H-tetrazol-1-yl)benzoyl)-3-(2-(4-phenyl-4-((4-carboxymethylpiperazin-1-yl)carboxamido)piperidin-1-yl)ethyl)-3-(3,4-dichlorophenyl)pyrrolidine hydrochloric acid salt] has an IC50 [1] of 70.7 nM and an IC50 (NK1 receptor) of 10.5 nM.
In the case of `COc1cc(C(=O)N2CC[C@@](CCN3CCC(C(=O)N4CCN(CC(=O)O)CC4)(c4ccccc4)CC3)(c3ccc(Cl)c(Cl)c3)C2)cc(OC)c1OC` [Example 13.3, (S)-1-(3,4,5-trimethoxybenzoyl)-3-(2-(4-phenyl-4-((4-carboxymethylpiperazin-l-yl)carboxamido)piperidine)ethyl)-3-(3,4-dichlorophenyl)pyrrolidine hydrochloric acid salt], the IC50 [1] is reported as 3.13 nM and the IC50 (NK1 receptor) is reported as 5.63 nM.
For `COC(=O)C1CCCN1C(=O)C1(c2ccccc2)CCN(CCC2(c3ccc(Cl)c(Cl)c3)CCN(C(=O)c3cc(OC)c(OC)c(OC)c3)C2)CC1` [Example 14.1, (R)-1-(3,4,5-Trimethoxybenzoyl)-3-(2-(4-phenyl-4-(((S)-2-carbomethoxypyrrolidin-1-yl)carboxamido)piperidin-1-yl)ethyl)-3-(3,4-dichlorophenyl)pyrrolidine], the IC50 [1] was 4.51 nM and the IC50 (NK1 receptor) was 4.32 nM.
In the case of `COc1cc(C(=O)N2CC[C@](CCN3CCC(C(=O)N4CCC[C@H]4C(=O)O)(c4ccccc4)CC3)(c3ccc(Cl)c(Cl)c3)C2)cc(OC)c1OC` [Example 15.2, (R)-1-(3,4,5-trimethoxybenzonyl)-3-(2-(4-phenyl-4-(((S)-2-carboxypyrrolidin-1-yl)carboxamido)piperidin-1-yl)ethyl)-3-(3,4-dichlorophenyl)pyrrolidine hydrochloric acid salt], the IC50 [1] is reported as 17.4 nM and the IC50 (NK1 receptor) is reported as 14 nM.
Work on `CCOC(=O)C1CCN(C(=O)C2(c3ccccc3)CCN(CC[C@]3(c4ccc(Cl)c(Cl)c4)CCN(C(=O)c4cc(OC)c(OC)c(OC)c4)C3)CC2)CC1` [Example 21.1, (R)-1-(3,4,5-Trimethoxybenzoyl)-3-(2-(4-phenyl-4-((4-carboethoxypiperidin-1-yl)carboxamido)piperidin-1-yl)ethyl)-3-(3,4-dichlorophenyl)pyrrolidine] yielded an IC50 [1] of 2.28 nM and an IC50 (NK1 receptor) of 10.4 nM.
With `COc1cc(C(=O)N2CC[C@](CCN3CCC(C(=O)N4CCC(C(=O)O)CC4)(c4ccccc4)CC3)(c3ccc(Cl)c(Cl)c3)C2)cc(OC)c1OC` [Example 22.1, (R)-1-(3,4,5-trimethoxybenzoyl)-3-(2-(4-phenyl-4-((4-carboxypiperidin-1-yl)carboxamido)piperidin-1-yl)ethyl)-3-(3,4-dichlorophenyl)pyrrolidine hydrochloric acid salt] the IC50 [1] was 6.29 nM and the IC50 (NK1 receptor) was 4.05 nM.
`CCOC(=O)CN1CCN(C(=O)C2(c3ccccc3)CCN(CCC3(c4ccc(F)c(F)c4)CCN(C(=O)c4cc(OC)c(OC)c(OC)c4)C3)CC2)CC1` (stereo not drawn) [Example 23.8, 1-(3,4,5-trimethoxvbenzoyl)-3-(2-(4-phenyl-4-((4-carboethoxymethylpiperazin-1-yl)carboxamido)piperidin-1-yl)ethyl)-3-(3,4-difluorophenyl)pyrrolidine hydrochloric acid salt] showed an IC50 [1] of 11.9 nM and an IC50 (NK1 receptor) of 8.41 nM.
In the case of `CCOC(=O)C1CN(C(=O)C2(c3ccccc3)CCN(CC[C@]3(c4ccc(Cl)c(Cl)c4)CCN(C(=O)c4cc(OC)c(OC)c(OC)c4)C3)CC2)CCO1` (stereo partly drawn) [Example 25.2, (R)-1-(3,4,5-trimethoxybenzoyl)-3-(2-(4-phenyl-4-((2-carboethoxymorpholin-4-yl)carboxamido)piperidin-1-yl)ethyl)-3-(3,4-dichlorophenyl)pyrrolidine fumaric acid salt], the IC50 [1] is reported as 6.5 nM and the IC50 (NK1 receptor) is reported as 14.4 nM.
In the case of `COc1cc(C(=O)N2CC[C@](CCN3CCC(C(=O)N4CCOC(C(=O)O)C4)(c4ccccc4)CC3)(c3ccc(Cl)c(Cl)c3)C2)cc(OC)c1OC` (stereo partly drawn) [Example 26.1, (R)-1-(3,4,5-Trimethoxybenzoyl)-3-(2-(4-phenyl-4-((2-carboxymorpholin-4-yl)carboxamido)piperidin-1-yl)ethyl)-3-(3,4-dichlorophenyl)pyrrolidine], the IC50 [1] is reported as 5.7 nM and the IC50 (NK1 receptor) is reported as 9.9 nM.
`CCOC(=O)CCN1CCN(C(=O)C2(c3ccccc3)CCN(CC[C@]3(c4ccc(Cl)c(Cl)c4)CCN(C(=O)c4cc(OC)c(OC)c(OC)c4)C3)CC2)CC1` [Example 27.3, (R)-1-(3,4,5-trimethoxvbenzoyl)-3-(2-(4-phenyl-4-((4-carboethoxyethylpiperazin-1-yl)carboxamido)piperidine)ethyl)-3-(3,4-dichlorophenyl)pyrrolidine hydrochloric acid salt] was tested, and the IC50 [1] was 2.34 nM and the IC50 (NK1 receptor) was 9.1 nM.
